Experimental data reported in patent US12384792B2, “Solid forms of isoquinolinones, and process of making, composition comprising, and methods of using the same” (Twelve Therapeutics, Inc., priority 2015, dated 2025).
In brackets after ≈: the same amount, converted by molar mass. Read-outs that look alike come from different tables or passages of the source.

How the values were obtained:
[1] = system: non-small-cell lung cancer, melanoma, and renal-cell cancer; conditions: clinical trial with a total of 296 patients; cited from earlier work
[2] = Kinetic solubility after 30 min in water and in 0.1M HCl; assay type: physicochemical; conditions: thermodynamic from solid, free base, 30 min, read-out: 30 min Kinetic solubility (pH), free base
Excerpt: See tables below for the summarized results.

[3] = Solubility of Compound 1 in acetonitrile/water during controlled crystallization; assay type: physicochemical
Description: An appropriate amount of acetonitrile/water were added to bring the solution to 80/20 v/v acetonitrile/water at 20 L/kg of Compound 1. The slurry was agitated and heated to 75° C. until all the Compound 1 was dissolved. The clear solution was polished filtered with a Zapcap filter (0.45 μm). The solution was put back into the reactor and cool down to 65° C.
The mixture was held under agitation at 22° C. for 2 hrs after the end of water addition.
20 L/kg of 80/20 v/v acetonitrile/water was added to Compound 1 solid charged into a reactor. The slurry was agitated and heated to 75° C. until all Compound 1 was dissolved. The clear solution was polish filtered with a Zapcap filter (0.45 μm). The solution was put back into the reactor and cooled down to 65° C.

[4] = system: post-irradiated tumors; conditions: cited from earlier work
[5] = system: PI3 kinase (e.g., PI3K-delta); conditions: in vitro; cited from earlier work
[6] = system: PI3 kinase (e.g., PI3K-delta); conditions: smoking mice in vivo; cited from earlier work

nivolumab: fully human IgG4 monoclonal antibody which specifically blocks PD1
response in non-small-cell lung cancer, melanoma, and renal-cell cancer [1]: complete or partial responses

C[C@H](NC(=O)c1c(N)nn2cccnc12)c1cc2cccc(C#Cc3cnn(C)c3)c2c(=O)n1-c1ccccc1 [Compound 1, (S)-2-amino-N-(1-(8-((1-methyl-1H-pyrazol-4-yl)ethynyl)-1-oxo-2-phenyl-1,2-dihydroisoquinolin-3-yl)ethyl)pyrazolo[1,5-a]pyrimidine-3-carboxamide]
solubility kinetic at 30 min ([2]; 0.1M HCl, pH 1.5, simulated gastric fluid, in 0.1M HCl, pH 1.5 and 1.3): 10 µg/mL (≈ 0.0189 mM) | solubility kinetic at 30 min ([2]; water, pH 7.1, water, in water (footnote *), pH 7.1 and 6.8): 10 µg/mL (≈ 0.0189 mM) | solubility ([3]; aqueous with cosolvent or surfactant or cyclodextrin, 40/60 v/v acetonitrile/water, 22° C.): ~3000 µg/mL (≈ 5.68 mM) | solubility ([3]; organic solvent or mixture, 80/20 v/v acetonitrile/water, 22° C.): ~18000 µg/mL (≈ 34.1 mM) | solubility ([3]; organic solvent or mixture, 80/20 v/v acetonitrile/water, 65° C.): ~50000 µg/mL (≈ 94.6 mM)

c1cc(CN2CCCNCCNCCCNCC2)ccc1CN1CCCNCCNCCCNCC1 [AMD3100]
tumor vasculogenesis and tumor regrowth [4]: blocked

Cn1c(=O)c2[nH]cnc2n(C)c1=O [Theophylline, theophylline]
histone deacetylase-2 and corticosteroid sensitivity [5]: increases | histone deacetylase-2 and corticosteroid sensitivity [6]: increases
